pIC50: −log10 of the molar value.
Assays:
Type in all cases: binding
[1] = biological target: T1, GT198 (wild type full length, His-tagged) (Homo sapiens, UniProt Q9P2W1); assay: competition with Oregon green-taxol on protein-coated plates, fluorescence
T1 construct: gene PSMC3IP; full length aa 1-217, N-terminal His tag kept, E. coli BL21(DE3)pLysS, Ni-NTA; homodimer
T1 sequence (Q9P2W1 1-217): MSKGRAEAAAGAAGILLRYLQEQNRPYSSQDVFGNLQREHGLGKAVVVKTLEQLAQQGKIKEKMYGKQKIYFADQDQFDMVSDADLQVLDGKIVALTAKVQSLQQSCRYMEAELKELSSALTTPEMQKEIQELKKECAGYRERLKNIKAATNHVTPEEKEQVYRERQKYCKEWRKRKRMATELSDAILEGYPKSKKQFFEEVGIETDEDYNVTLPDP

[2] = biological target: T2, GT198 DBD fragment 126-217 (Homo sapiens, UniProt Q9P2W1); assay: competition with biotinylated ssDNA on protein-coated plates, streptavidin-HRP chemiluminescence
T2 construct: gene PSMC3IP
T2 sequence (Q9P2W1 126-217): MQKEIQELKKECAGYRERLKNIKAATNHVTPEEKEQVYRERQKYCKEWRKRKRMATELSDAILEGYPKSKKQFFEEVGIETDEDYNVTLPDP

[3] = biological target: T2, GT198 DBD fragment 126-217; assay: competition with Oregon green-taxol on protein-coated plates, fluorescence
[4] = biological target: T1, GT198 (wild type full length, His-tagged); assay: competition with biotinylated ssDNA on protein-coated plates, streptavidin-HRP chemiluminescence

- pIC50 [1]: 8.06
- pIC50 [2]: 8.14
- pIC50 [3]: 7.82
- pIC50 [4]: 8.07
Compound: CC(=O)O[C@H]1C(=O)[C@@]2(C)[C@H]([C@H](OC(=O)c3ccccc3)[C@]3(O)C[C@H](OC(=O)[C@H](O)[C@@H](NC(=O)c4ccccc4)c4ccccc4)C(C)=C1C3(C)C)[C@]1(OC(C)=O)CO[C@@H]1C[C@@H]2O [taxol]

— publication doi:10.1101/675579v1, “Oncoprotein GT198 is a direct target of taxol” (biorxiv, 2019)
